Experimental data published in patent US9675629B2, “PH-responsive nanoparticle using mussel adhesive protein for drug delivery and method for preparing the same” (POSTECH ACADEMY-INDUSTRY FOUNDATION, priority 2015, dated 2017).

Test system: HeLa cells
Test: Cellular uptake evaluation, cell imaging and flow cytometer analysis
Type: cell-based
Details: DOX 2 μg/mL
Procedure: For cellular uptake evaluation, cell imaging and flow cytometer analysis were performed. For cell imaging, free DOX and DOX-loaded mfp-1 nanoparticles (DOX concentration 2 μg/mL) were treated for 1 and 3 hours into each cell culture medium after initial cell seeding on 24-well culture plate. Before observation, cells were stained with 5 μg/mL of Hoechst 33258 (Sigma) solution for 30 minutes to clearly discriminate cell nucleus from cytosol. Cell nucleus and location of DOX were observed using fluorescence microscopy (Olympus). Cells treated by same condition with imaging procedures were collected for flow cytometry analysis after detachment by 0.25% trypsin-EDTA treatment. Fluorescence intensity of DOX in the collected cells resuspended in 1 mL PBS was examined by fluorescence scanning with 1×10^4 cells under PerCP-Cy5.5 filter (488 nm excitation and 630 nm emission). Calibration was performed using non-treated cells.

COc1cccc2c1C(=O)c1c(O)c3c(c(O)c1C2=O)C[C@@](O)(C(=O)CO)C[C@@H]3O[C@H]1C[C@H](N)[C@H](O)[C@H](C)O1 [free DOX, doxorubicin]
fluorescence intensity of DOX in cells, flow cytometry (1 and 3 hours): higher than DOX-loaded mfp-1 nanoparticles-treated cells | location of DOX in cells, fluorescence microscopy (treated for 1 hour): spread over the whole cell area
